The values that follow come from patent US11426441B2, “Composition comprising protein phosphatase 1 inhibitory peptide for treating vascular diseases” (BethphaGen Inc., priority 2016, dated 2022).

No end group written: not given here.

The test system of assay [1] is cytosolic Ca^2+ level. Nature of the assay: Intracellular Ca2+ measurement in HCSMCs. The conditions noted are these: HCSMCs pretreated 1 hour with 3 μM ψPLB-SE or 15 μM MDL28170, then 50 μM A23187 2 hours. It counts as cell-based, human. As to the method:
(§1) FIGS. 4a, 4b, 4c and 4d. (4a-4c) HCSMCs were pretreated with 3 μM ψPLB-SE and 15 μM MDL28170 for 1 hour, and then treated with 50 μM A23187 for 2 hours. (4a) Immunostaining was performed with antibodies against SERCA2a and SERCA2b (green). Nuclei were stained with Hoechst (blue). Representative merged images are shown. Scale bar, 50 μm. (4b) Western blot analysis was performed with cell extracts. Data are expressed as the means±SD (n=3-4; *, P<0.05). (4c) Baseline Ca^2+ concentration was measured by lonOptix calcium imaging system. (4d) RASMC were treated with ψPLB-SE or control peptide under the same conditions as described for FIG. 1B. The baseline Ca^2+ concentration was measured by lonOptix calcium imaging system (*, P<0.05).
The intracellular Ca^2+ level was measured in VSMCs by loading cells with 0.5 μM Fura2-AM (Molecular Probes, Eugene Oreg., USA), a Ca^2+-sensitive indicator, for 15 minutes at 37. The fluorescence was recorded using the lonOptix calcium imaging system. VSMCs were stimulated by the exposure to light emitted by a 75 W halogen lamp through either a 340 nm or 380 nm filter. The fluorescent emissions were detected between 480 nm and 520 nm by a photomultiplier tube after an initial illumination at 340 nm for 0.5 second and then at 380 nm during recording. The 340 nm excitation scan was repeated at the end of the protocol, and qualitative changes in the intracellular Ca^2+ level were inferred from the ratio of the Fura2 fluorescent intensity at both wavelengths.

Assay [2] has as its system pulmonary arterial smooth muscle cells (PASMCs). The experiment in a line: PASMC proliferation (PCNA western blotting, cell proliferation assay). The conditions noted are these: synthetic phenotype induction. It counts as cell-based. As to the method: FIGS. 19a and 19b. […] (19a) Protein expression was quantitatively analyzed through western blotting using antibodies against PCNA and GAPDH 12 and 24 hours after the treatment. (19b) Cell proliferation assay was performed using EZ-CyTox cell viability assay kit.
The rat aortic smooth muscle cells (RASMCs) were isolated from the medial layer of the thoracic aorta derived from male Sprague-Dawley rats (body weight, 180-200 g) by an enzymatic reaction with collagenase (50 U/mL, Worthington) and pancreatic elastase (0.25 mg/mL, Sigma-Aldrich) for 4 hours at 37. The cells were collected and resuspended in DMEM containing 20% (v/v) fetal bovine serum. The resuspension was then plated on collagen I (Sigma-Aldrich)-coated glass coverslips and incubated at 37 in an atmosphere of 5% (v/v) CO2 and 95% (v/v) air. Human coronary smooth muscle cells (HCSMCs), pulmonary arterial endothelial cells (PAECs), and pulmonary arterial smooth muscle cells (PASMCs) were purchased from Lonza and cultured in EBM or SmBM (Lonza) supplemented with 0.5 mg/mL hEGF, […], 1 mg/mL hFGF, […] gentamicin/amphotericin-B, and 5% fetal bovine serum. […]
Vascular smooth muscle cells (VSMCs) were homogenized in a minimal volume of 50 mM Tris-HCl, pH 7.4, supplemented with a broad-spectrum protease inhibitor cocktail (Calbiochem). […] The blots were scanned and quantified using LAS software.
Background: Immunoblotting shows a protein as a band on a membrane.

Assay [3] concerns cytosolic Ca^2+ level. The experiment in a line: Intracellular Ca2+ measurement in RASMCs. The format is cell-based, rat. The conditions noted are these: 10% FBS, 3 μM peptide. As to the method:
as §1
The intracellular Ca^2+ level was measured in VSMCs by loading cells with 0.5 μM Fura2-AM (Molecular Probes, Eugene Oreg., USA), a Ca^2+-sensitive indicator, for 15 minutes at 37. The fluorescence was recorded using the lonOptix calcium imaging system. VSMCs were stimulated by the exposure to light emitted by a 75 W halogen lamp through either a 340 nm or 380 nm filter. The fluorescent emissions were detected between 480 nm and 520 nm by a photomultiplier tube after an initial illumination at 340 nm for 0.5 second and then at 380 nm during recording. […]

The subject of the next assay is phospholamban. The experiment in a line: PLB phosphorylation in PASMCs (western blotting). The format is cell-based. The following applies: synthetic phenotype, 3 μM.
Assay [4] relates to monocrotaline (MCT)-induced pulmonary arterial hypertension mice. The experiment in a line: Monocrotaline-induced pulmonary arterial hypertension in mice. The format is in vivo, mouse. How it is done:
Vascular smooth muscle cells (VSMCs) were homogenized in a minimal volume of 50 mM Tris-HCl, pH 7.4, supplemented with a broad-spectrum protease inhibitor cocktail (Calbiochem). The proteins were separated by SDS-PAGE and then transferred to polyvinylidene fluoride membranes (Schleicher & Schuell). After blocking with 5% (w/v) non-fat milk for 1 hour and washing with TBST, the membranes were incubated with antibodies against SERCA2a, SERCA2b (21st century biochemical), PCNA (abcam), GAPDH (Sigma-Aldrich), phospho-eNOS, eNOS, phospho-eIF2α, eIF2α (cell signaling), Vimentin, α-SMA, BMPR2 (Santa cruz), phospho-Akt, Akt (cell signaling), phospho-phospholamban (Merck), and Phospholamban (cell signaling). The membranes were then incubated with horseradish peroxidase-conjugated secondary antibodies (Jackson ImmunoResearch, West Grove, Pa., USA) and developed using a chemiluminescent substrate (Dogen). The blots were scanned and quantified using LAS software.
As for mice, fifteen C57BL/6 mice (Damool science, Korea) weighing 25-30 g were treated with 600 mg/kg MCT five times a week. Out of the mice, eight animals for a comparison group were administered with ψPLB-SE peptide four times at intervals of one week from day 15 after the administration of MCT. Five animals for a control group were administered with a control peptide. The mice were sacrificed one week after last administration, and then histological analysis and molecular biological experiments were conducted.
Pulmonary tissues were taken from animal models, fixed with 4% (w/v) paraformaldehyde for 5 days at room temperature, and then washed with PBS. After embedding the specimens in paraffin and sectioning the tissue blocks into a thickness of 7 μm, the sections were stained with haematoxylin and eosin (Sigma Aldrich) to investigate the vascular thickness and inflammation, and the sections were stained with Masson-trichrome (Sigma Aldrich) to investigate the extent of perivascular fibrosis, and then observed through an optical microscope.
The pulmonary tissues were obtained from rats and mice, and the cytokine levels in the tissues were quantitatively analyzed using human proinflammatory 10plex Meso Scale Diagnostics plates (MSD; Rockville, Md.).
Quantitative RT-PCR was performed using SYBR premix Ex Taq™ (Takara), though which the transcriptional levels of target genes were analyzed. RNA was isolated from pulmonary tissues using trizole (ambion), and synthesized into cDNA. Quantitative RT-PCR conditions were 40 cycles: 10 sec at 94° C., 30 sec at 59° C., and 10 sec at 72° C.

Experimental for phospholamban: PASMCs were incubated in DMEM supplemented with 0.1% (v/v) FBS for 3 days to induce a contractile phenotype, followed by incubation in DMEM supplemented with 10% (v/v) FBS for 3 days to induce a synthetic phenotype in the presence of 3 μM ψPLB-SE. (18a) Protein expression was quantitatively analyzed through western blotting using antibodies against phospho-PLB (ser16), total PLB, and GAPDH. Data are expressed as the means±SD (n=3˜4; *, P<0.05 vs contractile; #, P<0.05 vs Synthetic-con).
Human coronary smooth muscle cells (HCSMCs), pulmonary arterial endothelial cells (PAECs), and pulmonary arterial smooth muscle cells (PASMCs) were purchased from Lonza and cultured in EBM or SmBM (Lonza) supplemented with 0.5 mg/mL hEGF, 5 mg/mL insulin, 1 mg/mL hFGF, 50 mg/mL gentamicin/amphotericin-B, and 5% fetal bovine serum. All the cells were cultured at 37 in 5% (v/v) CO2 and 95% (v/v) air. RASMCs and HCSMCs were, respectively, plated at the densities of 1×10^4 cells/cm^2 and 1×10^5 cells/cm^2 for immunostaining and western blotting experiments.

Regarding “RAETIEMPQ (not fully specified) [ψPLB-SE, 9-mer PP1 decoy peptide mimicking phosphorylated PLB; conjugated via GGG linker to cell penetrating peptide dNP2 or TAT]”, the “elevation of the cytosolic Ca^2+ level by A23187” value in the assay on cytosolic Ca^2+ level [1] is given as “normalized”. For the same sequence, in assay [2], the “cell proliferation (cell proliferation assay)” value is “inhibiting cell proliferation” and the “expression of PCNA” value is given as “attenuated”. In addition, the “cytosolic Ca^2+ level elevated under synthetic conditions” value in the assay with cytosolic Ca^2+ level [3] was “decreased”. In the assay with phospholamban, the “phosphorylation of the serine 16 residue of phospholamban” value was “restored”. In assay [4] (mouse pulmonary tissue), the “expression level of SERCA2a” value is reported as “increased”; the “fibrosis extent of vascular adventitia (Masson-trichrome staining)” value is “attenuated”; the “increases in the protein and mRNA expression of TGF-β, Collagen 1, vimentin, and α-SMA” value is on record as “attenuated”; the “proinflammatory cytokines (GM-CSF, TNF-α, IL-17, IL-1β, IL-6, TGF-β) levels” value is reported as “restored to nearly to the normal levels”. For the same sequence, in assay [4] (mouse pulmonary tissue proteins), the “eNOS phosphorylation level (eNOS activity)” value is listed as “increased”. Also, the “increase in vascular thickening (hematoxylin and eosin staining)” value in assay [4] (mouse pulmonary tissue, MCT 600 mg/kg, peptide via respiratory inhalation once a week for 4 weeks from the second week) is “attenuated”. The “increase in monocyte infiltration” value in assay [4] (mouse pulmonary tissue, hematoxylin and eosin staining) is given as “attenuated”. In assay [4] (mouse pulmonary tissue, quantitative RT-PCR), the “mRNA expression levels of TNF-α, IL-17, IL-1β, F4/80, and MCP-1” value is listed as “reduced”.
